Reference: patent US8129368B2, “5,6-dihydro-1H-pyridin-2-one compounds” (priority 2008, dated 2012)
Where two headings read alike, the source gives them in different places.

Test system: HCV Huh-luc/neo-ET replicon cells
Assay: Luciferase-Based HCV Replicon Assay (EC50 (1b))
Format: cell-based
Conditions: Hepatitis C virus
Experimental: Luciferase-Based HCV Replicon Assay Protocol (EC50 (1b))
The cell culture component of the assay is performed essentially as described by Bartenschlager et al., Hepatology 2002, 35, 694-703, wherein exponentially growing HCV Huh-luc/neo-ET replicon cells were seeded at 6×10^3 cells/well in 96 well assay plate. 24 hours later the cells were treated with various concentrations of compound or combination of compounds in triplicate using both fixed ratios and checkerboard matrices of test agents and cultured for 72 hours. The luciferase activity in the wells was determined using Bright-Glo reagent (Promega, Madison, Wis.) with a luminometer (Wallac 1420 Multilabel HTS Counter Victor 2). The background control was replicon cells treated with 100 nM BILN-2061, an inhibitor of the HCV protease. % Inhibition was determined for each compound concentration in relation to the negative (no compound) control to calculate the EC50(1b).

[1] = Huh-luc/neo-ET, 72 h, read-out: EC50 (1b)
[2] = Huh-luc/neo-ET, 72 h, read-out: EC50(1b) concentration
[3] = HCV Huh-luc/neo-ET replicon cells, 72 hours, luciferase activity, read-out: EC50 (1b)
[4] = HCV Huh-luc/neo-ET replicon cells, 72 hours, luciferase activity, read-out: EC50(1b) concentration

**Q.** Which EC50 [1] does the source give for CS(=O)(=O)Nc1ccc2c(c1)S(=O)(=O)N=C(C1=C(O)C3C4CCC(C4)C3N(Cc3ccc(F)c(Cl)c3)C1=O)N2 [Example 2, N-{3-[(1S,2S,7R,8R)-3-(Chloro-4-fluoro-benzyl)-6-hydroxy-4-oxo-3-aza-tricyclo[6.2.1.0^2,7]undec-5-en-5-yl]-1,1-dioxo-1,4-dihydro-1λ^6-benzo[1,2,4]thiadiazin-7-yl}-methanesulfonamide] here?
**A.** The EC50 was < 0.005 µM.

**Q.** And the EC50 [2]?
**A.** Its EC50 is < 0.025 µM.

**Q.** Which results are given for CS(=O)(=O)Nc1ccc2c(c1)S(=O)(=O)N=C(C1=C(O)[C@@H]3C4CCC(CC4)[C@@H]3N(Cc3ccc(F)c(F)c3)C1=O)N2 [Example 10, N-{3-[(2S,7R)-3-(3,4-Difluoro-benzyl)-6-hydroxy-4-oxo-3-aza-tricyclo[6.2.2.0^2,7]dodec-5-en-5-yl]-1,1-dioxo-1,4-dihydro-1λ^6-benzo[1,2,4]thiadiazin-7-yl}-methanesulfonamide]?
**A.** EC50 [3]: < 0.005 µM; EC50 [4]: < 0.025 µM

**Q.** What does the source list for CS(=O)(=O)Nc1ccc2c(c1)S(=O)(=O)NC(C1=C(O)[C@@H]3[C@@H]4CC[C@@H](C4)[C@@H]3N(Cc3ccccc3)C1=O)=N2 [Example 20]?
**A.** EC50 [1]: 0.005 to 0.025 µM; EC50 [2]: < 0.025 µM

**Q.** For COc1cccc(CN2C(=O)C(C3=NS(=O)(=O)c4cc(NS(C)(=O)=O)ccc4N3)=C(O)[C@@H]3C4CCC(CC4)[C@@H]32)c1 [Example 3, N-{3-[(2S,7R)-6-Hydroxy-3-(3-methoxy-benzyl)-4-oxo-3-aza-tricyclo[6.2.2.0^2,7]dodec-5-en-5-yl]-1,1-dioxo-1,4-dihydro-1λ^6-benzo[1,2,4]thiadiazin-7-yl}-methanesulfonamide], which EC50 [3] is on record?
**A.** The EC50 was < 0.005 µM.

**Q.** And the EC50 [4]?
**A.** Its EC50 is < 0.025 µM.

**Q.** With Cc1cc(CN2C(=O)C(C3=NS(=O)(=O)c4cc(NS(C)(=O)=O)ccc4N3)=C(O)[C@@H]3C4CCC(CC4)[C@@H]32)ccc1F [Example 11, N-{3-[(2S,7R)-3-(4-Fluoro-3-methyl-benzyl)-6-hydroxy-4-oxo-3-aza-tricyclo[6.2.2.0^2,7]dodec-5-en-5-yl]-1,1-dioxo-1,4-dihydro-1λ^6-benzo[1,2,4]thiadiazin-7-yl}-methanesulfonamide] as the molecule, how does the EC50 [3] read?
**A.** Its EC50 is < 0.005 µM.

**Q.** What about the EC50 [4] of the same molecule?
**A.** The EC50 was < 0.025 µM.

**Q.** How did the EC50 [3] turn out when CS(=O)(=O)Nc1ccc2c(c1)S(=O)(=O)NC(C1=C(O)[C@@H]3C4CCC(CC4)[C@@H]3N(Cc3cccc(F)c3)C1=O)=N2 [Example 14, N-{3-[(2S,7R)-3-(3-Fluoro-benzyl)-6-hydroxy-4-oxo-3-aza-tricyclo[6.2.2.0^2,7]dodec-5-en-5-yl]-1,1-dioxo-1,2-dihydro-1λ^6-benzo[1,2,4]thiadiazin-7-yl}-methanesulfonamide] was run?
**A.** Its EC50 is < 0.005 µM.

**Q.** And the EC50 [4]?
**A.** The EC50 was < 0.025 µM.

**Q.** With CS(=O)(=O)Nc1ccc2c(c1)S(=O)(=O)NC(C1=C(O)C3C4CC(C5CC54)C3N(Cc3ccc(F)cc3)C1=O)=N2 (racemic) [Example 13, (rac-di-exo,di-exo)-N-{3-[3-(4-Fluoro-benzyl)-6-hydroxy-4-oxo-3-aza-tetracyclo[6.3.1.0^2,7.0^9,11]dodec-5-en-5-yl]-1,1-dioxo-1,2-dihydro-1λ^6-benzo[1,2,4]thiadiazin-7-yl}-methanesulfonamide] as the molecule, how does the EC50 [3] read?
**A.** Its EC50 is < 0.005 µM.

**Q.** What about the EC50 [4] of the same molecule?
**A.** The EC50 was < 0.025 µM.

**Q.** Which results are given for CS(=O)(=O)Nc1ccc2c(c1)S(=O)(=O)NC(C1=C(O)[C@@H]3C4CCC(CC4)[C@@H]3N(Cc3cc(F)c(F)cc3F)C1=O)=N2 [Example 26]?
**A.** EC50 [3]: 0.005 to 0.025 µM; EC50 [4]: < 0.025 µM

**Q.** CS(=O)(=O)Nc1ccc2c(c1)S(=O)(=O)NC(C1=C(O)[C@@H]3[C@H]4CC[C@H](C4)[C@@H]3N(Cc3ccsc3)C1=O)=N2 [Example 25, N-{3-[(1R,2S,7R,8S)-6-Hydroxy-4-oxo-3-thiophen-3-ylmethyl-3-aza-tricyclo[6.2.1.0^2,7]undec-5-en-5-yl]-1,1-dioxo-1,2-dihydro-1λ^6-benzo[1,2,4]thiadiazin-7-yl}-methanesulfonamide] was tested. Which EC50 [3] did it give?
**A.** Its EC50 is 0.005 to 0.025 µM.

**Q.** And the EC50 [4]?
**A.** The EC50 was < 0.025 µM.

**Q.** Which results are given for CS(=O)(=O)Nc1ccc2c(c1)S(=O)(=O)N=C(C1=C(O)[C@@H]3C4CCC(CC4)[C@@H]3N(Cc3ccc(F)cc3F)C1=O)N2 [Example 4, N-{3-[(2S,7R)-3-(2,4-Difluoro-benzyl)-6-hydroxy-4-oxo-3-aza-tricyclo[6.2.2.0^2,7]dodec-5-en-5-yl]-1,1-dioxo-1,4-dihydro-1λ^6-benzo[1,2,4]thiadiazin-7-yl}-methanesulfonamide]?
**A.** EC50 [3]: < 0.005 µM; EC50 [4]: < 0.025 µM

**Q.** Which EC50 [3] does the source give for CC(C)(C)CCN1C(=O)C(C2=NS(=O)(=O)c3cc(NS(C)(=O)=O)ccc3N2)=C(O)[C@@H]2C3CCC(CC3)[C@@H]21 [Example 9, N-{3-[(2S,7R)-3-(3,3-Dimethyl-butyl)-6-hydroxy-4-oxo-3-aza-tricyclo[6.2.2.0^2,7]dodec-5-en-5-yl]-1,1-dioxo-1,4-dihydro-1λ^6-benzo[1,2,4]thiadiazin-7-yl}-methanesulfonamide] here?
**A.** The EC50 was < 0.005 µM.

**Q.** What about the EC50 [4] of the same molecule?
**A.** Its EC50 is < 0.025 µM.

**Q.** Which results are given for CS(=O)(=O)Nc1ccc2c(c1)S(=O)(=O)NC(C1=C(O)[C@@H]3[C@@H]4CC[C@@H](C4)[C@@H]3N(Cc3ccc(F)c(F)c3)C1=O)=N2 [Example 23, N-{3-[(1S,2S,7R,8R)-3-(3,4-Difluoro-benzyl)-6-hydroxy-4-oxo-3-aza-tricyclo[6.2.1.0^2,7]undec-5-en-5-yl]-1,1-dioxo-1,2-dihydro-1λ^6-benzo[1,2,4]thiadiazin-7-yl}-methanesulfonamide]?
**A.** EC50 [1]: 0.005 to 0.025 µM; EC50 [2]: < 0.025 µM

**Q.** CS(=O)(=O)Nc1ccc2c(c1)S(=O)(=O)NC(C1=C(O)[C@@H]3C4CCC(CC4)[C@@H]3N(Cc3ccc(F)c(F)c3F)C1=O)=N2 [Example 18, N-{3-[(2S,7R)-6-Hydroxy-4-oxo-3-(2,3,4-trifluoro-benzyl)-3-aza-tricyclo[6.2.2.0^2,7]dodec-5-en-5-yl]-1,1-dioxo-1,2-dihydro-1λ^6-benzo[1,2,4]thiadiazin-7-yl}-methanesulfonamide] was tested. Which EC50 [3] did it give?
**A.** Its EC50 is 0.005 to 0.025 µM.

**Q.** And the EC50 [4]?
**A.** Its EC50 is < 0.025 µM.

**Q.** For CS(=O)(=O)Nc1ccc2c(c1)S(=O)(=O)NC(C1=C(O)[C@@H]3C4CCC(CC4)[C@@H]3N(CC3CCCCC3)C1=O)=N2 [Example 15, N-{3-[(2S,7R)-3-Cyclohexylmethyl-6-hydroxy-4-oxo-3-aza-tricyclo[6.2.2.0^2,7]dodec-5-en-5-yl]-1,1-dioxo-1,2-dihydro-1λ^6-benzo[1,2,4]thiadiazin-7-yl}-methanesulfonamide], which EC50 [3] is on record?
**A.** Its EC50 is 0.005 to 0.025 µM.

**Q.** What about the EC50 [4] of the same molecule?
**A.** The EC50 was < 0.025 µM.

**Q.** For CS(=O)(=O)Nc1ccc2c(c1)S(=O)(=O)NC(C1=C(O)[C@@H]3C4CCC(CC4)[C@@H]3N(Cc3ccccc3)C1=O)=N2 [Example 12, N-{3-[(2S,7R)-3-Benzyl-6-hydroxy-4-oxo-3-aza-tricyclo[6.2.2.0^2,7]dodec-5-en-5-yl]-1,1-dioxo-1,2-dihydro-1λ^6-benzo[1,2,4]thiadiazin-7-yl}-methanesulfonamide], which EC50 [3] is on record?
**A.** Its EC50 is < 0.005 µM.

**Q.** What about the EC50 [4] of the same molecule?
**A.** Its EC50 is < 0.025 µM.

**Q.** Which results are given for CS(=O)(=O)Nc1ccc2c(c1)S(=O)(=O)N=C(C1=C(O)[C@@H]3C4CCC(CC4)[C@@H]3N(Cc3ccc(F)cc3Cl)C1=O)N2 [Example 5, N-{3-[(2S,7R)-3-(2-Chloro-4-fluoro-benzyl)-6-hydroxy-4-oxo-3-aza-tricyclo[6.2.2.0^2,7]dodec-5-en-5-yl]-1,1-dioxo-1,4-dihydro-1λ^6-benzo[1,2,4]thiadiazin-7-yl}-methanesulfonamide]?
**A.** EC50 [3]: 0.005 to 0.025 µM; EC50 [4]: < 0.025 µM

**Q.** Cc1ccccc1CN1C(=O)C(C2=Nc3ccc(NS(C)(=O)=O)cc3S(=O)(=O)N2)=C(O)[C@@H]2C3CCC(CC3)[C@@H]21 [Example 17, N-{3-[(2S,7R)-6-Hydroxy-3-(2-methyl-benzyl)-4-oxo-3-aza-tricyclo[6.2.2.0^2,7]dodec-5-en-5-yl]-1,1-dioxo-1,2-dihydro-1λ^6-benzo[1,2,4]thiadiazin-7-yl}-methanesulfonamide] was tested. Which EC50 [3] did it give?
**A.** Its EC50 is 0.005 to 0.025 µM.

**Q.** What about the EC50 [4] of the same molecule?
**A.** The EC50 was < 0.025 µM.

**Q.** For Cc1ccccc1CN1C(=O)C(C2=Nc3ccc(NS(C)(=O)=O)cc3S(=O)(=O)N2)=C(O)[C@@H]2[C@@H]3CC[C@@H](C3)[C@@H]21 [Example 29, N-{3-[(1S,2S,7R,8R)-6-Hydroxy-3-(2-methyl-benzyl)-4-oxo-3-aza-tricyclo[6.2.1.0^2,7]undec-5-en-5-yl]-1,1-dioxo-1,2-dihydro-1λ^6-benzo[1,2,4]thiadiazin-7-yl}-methanesulfonamide], which EC50 [3] is on record?
**A.** Its EC50 is 0.005 to 0.025 µM.

**Q.** And the EC50 [4]?
**A.** Its EC50 is < 0.025 µM.

**Q.** How did the EC50 [3] turn out when CS(=O)(=O)Nc1ccc2c(c1)S(=O)(=O)N=C(C1=C(O)[C@@H]3[C@H]4CC[C@H](C4)[C@@H]3N(Cc3ccc(F)cc3Cl)C1=O)N2 [Example 1, (1R,2S,7R,8S)—N-{3-[3-(2-Chloro-4-fluoro-benzyl)-6-hydroxy-4-oxo-3-aza-tricyclo[6.2.1.0^2,7]undec-5-en-5-yl]-1,1-dioxo-1,4-dihydro-1λ^6-benzo[1,2,4]thiadiazin-7-yl}-methanesulfonamide] was run?
**A.** The EC50 was < 0.005 µM.

**Q.** And the EC50 [4]?
**A.** The EC50 was < 0.025 µM.

**Q.** For CS(=O)(=O)Nc1ccc2c(c1)S(=O)(=O)NC(C1=C(O)[C@@H]3C4CCC(CC4)[C@@H]3N(Cc3cccs3)C1=O)=N2 [Example 16, N-{3-[(2S,7R)-6-Hydroxy-4-oxo-3-thiophen-2-ylmethyl-3-aza-tricyclo[6.2.2.0^2,7]dodec-5-en-5-yl]-1,1-dioxo-1,2-dihydro-1λ^6-benzo[1,2,4]thiadiazin-7-yl}-methanesulfonamide], which EC50 [3] is on record?
**A.** The EC50 was 0.005 to 0.025 µM.

**Q.** And the EC50 [4]?
**A.** Its EC50 is < 0.025 µM.

**Q.** Which results are given for CS(=O)(=O)Nc1ccc2c(c1)S(=O)(=O)NC(C1=C(O)[C@@H]3[C@H]4CC[C@H](C4)[C@@H]3N(CC3CCCCC3)C1=O)=N2 [Example 28]?
**A.** EC50 [3]: 0.005 to 0.025 µM; EC50 [4]: < 0.025 µM
